In paper PMC3430861, “The pharmacological profile of ELIC, a prokaryotic GABA-gated receptor” (Neuropharmacology, 2012):
pEC50: −log10 of the molar value.

Molecular target: T1, ELIC (Dickeya chrysanthemi, UniProt P0C7B7, INS163G)
T1 construct: expressed in transfected cells; host or cells: Xenopus laevis oocytes injected with cRNA
Assay: cell-based
Format: cell-based, Erwinia chrysanthemi
Experimental: Xenopus laevis oocyte-positive females were purchased from NASCO (Fort Atkinson, Wisconsin, USA) and maintained according to standard methods.
The ELIC sequence (Genbank accession number POC7B7) was purchased from Genscript as a synthetic gene with optimized codon usage for expression in Escherichia coli. […] Stage V and VI oocytes were injected with 20 ng cRNA, and currents recorded 1–3 days post-injection.

Compound | pEC50
C[C@H](N)C(=O)O [Alanine] | < 2.00
N=C(N)NCCC[C@H](N)C(=O)O [Arginine] | < 2.00
NC(=O)C[C@H](N)C(=O)O [Asparagine] | < 2.00
N[C@@H](CC(=O)O)C(=O)O [Aspartate] | < 2.00
N[C@@H](CS)C(=O)O [Cysteine] | < 2.00
NC(=O)CC[C@H](N)C(=O)O [Glutamine] | < 2.00
N[C@@H](Cc1c[nH]cn1)C(=O)O [Histidine] | < 2.00
CC[C@H](C)[C@H](N)C(=O)O [Isoleucine] | < 2.00
N[C@@H](CCC(=O)O)C(=O)O [L-glutamate] | < 2.00
CC(C)C[C@H](N)C(=O)O [Leucine] | < 2.00
NCCCC[C@H](N)C(=O)O [Lysine] | < 2.00
CSCC[C@H](N)C(=O)O [Methionine] | < 2.00
N[C@@H](Cc1ccccc1)C(=O)O [Phenylalanine] | < 2.00
O=C(O)[C@@H]1CCCN1 [Proline] | < 2.00
N[C@@H](CO)C(=O)O [Serine] | < 2.00
C[C@@H](O)[C@H](N)C(=O)O [Threonine] | < 2.00
N[C@@H](Cc1c[nH]c2ccccc12)C(=O)O [Tryptophan] | < 2.00
N[C@@H](Cc1ccc(O)cc1)C(=O)O [Tyrosine] | < 2.00
CC(C)[C@H](N)C(=O)O [Valine] | < 2.00
NCc1cc(=O)[nH]o1 [muscimol] | < 2.00
O=C(O)[C@@H]1CCC(O)=N1 [pyroglutamate] | < 2.00
O=C(O)CCC(=O)O [succinic acid] | < 2.00
NCCC(=O)O [β-alanine] | < 2.00
O=C1CCCO1 [γ-butyrolactone] | < 2.00
